In one assay the test system is Xs-D8 cells. As to the kind of experiment: Daughter pair analysis (DPA), BrdU incorporation. The assay is classed as cell-based, rat. The following applies: addition of Xs; n=58 pairs; 16% in absence of Xs. The protocol:
The assay is called a “daughter pair analysis” (DPA). To perform the DPA, cells are plated in Xs-containing medium at microcolony density (approximately one cell per 40× microscope field). After allowing 4 to 5 hours for cell adherence, asymmetric cell kinetics are induced by changing to Xs-free medium. After about 16 hours to allow cell divisions to produce “daughter pairs”, the cells are labeled for 4 hours with the thymidine analogue bromodeoxyuridine (BrdU). The cells are then fixed and evaluated for BrdU incorporation by in situ immunofluorescence.
When grown in the absence of Xs, 84% of Xs-D8 BrdU(+) daughter pairs show a single BrdU(+) daughter (n=76 pairs; e.g., FIGS. 3C,F). The BrdU(+) daughter is the cycling stem cell daughter, whereas the BrdU(−) daughter corresponds to a non-cycling transit cell daughter that can undergo differentiation in peptide hydrogels (data not shown). Consistent with its ability to shift cells from asymmetric to exponential kinetics, addition of Xs increases the fraction of double-BrdU(+) Xs-D8 daughter pairs from 16% to 76% (n=58 pairs; e.g., FIGS. 3B,E). […] For 70 scored daughter pairs in Xs-free medium, the frequency of Xs-F1 symmetric pairs was 5 times the frequency of Xs-D8 symmetric pairs.

The test system of a further assay is LT-CFCs. As to the kind of experiment: Serial transfer of LT-CFC-derived type I colonies in soft agar. Type of assay: cell-based, murine. As to the method:
Type I colonies were isolated from soft agar with either control medium or medium containing Xs (data for 1 mM and 3 mM Xs are combined). Colonies were dispersed and then plated in a single 6-well in soft agar developed with culture medium containing the respective concentration of Xs. After 1-3 weeks, the number and type of secondary colonies were scored by phase microscopy. Bars indicate the mean percent of positive wells for each secondary colony type. Data for the control condition are the means of two independent experiments; data for Xs condition are the means of four independent experiments. We next evaluated whether LT-CFCs which produced type I colonies could be propagated in soft agar. Pasteur pipettes were used to isolate type I colonies from soft agar developed in either control medium or medium containing Xs. Isolated colonies were dispersed and their cells replated in their entirety in a single well of a 6-well plate in soft agar developed with the respective Xs concentration.

The subject of assay [1] is freshly harvested murine bone marrow cells. Kind of assay: Bone marrow colony formation in soft agar (fresh bone marrow). The assay is classed as cell-based. As to the method:
The following numbers of freshly harvested murine bone marrow cells were plated in soft agar in replicates of 6 in 6-well plates: 1×10^5, 5×10^5, or 1×10^6. After 1-3 weeks, type I, II, and III colonies (see FIG. 2 for examples) were enumerated by phase microscopy.
Because of the difficulties anticipated in cloning Xs-dependent cells from heterogenous long-term bone marrow cultures, we decided to adopt a soft agar culture strategy. It is well known that hematopoietic progenitor cells will form colonies when grown in semi-solid medium (Dexter et al., 1984). […] In many bone marrow cell studies, conditions are selected to induce bone marrow cell differentiation. Methyl-cellulose or soft agar supplemented with lineage-promoting growth factors are widely used experimental systems (Dexter et al., 1984). For ideal SACK, we wished to minimize stimuli for differentiation. Therefore, we used agar developed in routine horse serum-supplemented long-term culture medium, without any additional growth factor source, as the gel medium for our studies. We followed procedures developed for detecting anchorage-independent growth of transformed tumor cells.
Given their associated HSC activity, LT-CFCs are predicted to divide with asymmetric cell kinetics. We evaluated whether Xs would increase the frequency of LT-CFC type I colonies in soft agar. Freshly prepared bone marrow cells were plated in soft agar developed in either control medium or medium containing 1 mM or 3 mM Xs.

Assay [2] relates to Rat liver epithelial cells. As to the kind of experiment: Clonal derivation of rat liver epithelial cells by limiting dilution in 96-well plates. The assay is classed as cell-based. From the text:
Using xanthosine (Xs) as a pharmacological agent to switch tissue stem cells from their default asymmetric cell kinetics program to exponential kinetics, we attempted to derive clonal rat liver epithelial stem cell lines that retained the ability to divide with asymmetric cell kinetics when Xs was removed. Rat liver epithelial cells found in the low-speed supernatant of centrifuged cells from in situ collagenase-perfused livers were clonally-derived by limiting dilution in 96-well plates in the absence or presence of added Xs (200 μM or 400 μM). Colonies with epithelial cell morphology arose with similar efficiency under both conditions (4.1±0.31 percent for both 480 Xs− wells and 960 Xs+ wells). The efficiency of establishing cell strains from these initial colonies was also similar, 50% (3/6) for colonies expanded in Xs-free medium and 65% (11/17) for colonies derived in Xs-containing medium. Each type of cell strain has now been maintained continuously in culture for >80 cell doublings. Early passage cells were cryo-preserved in liquid nitrogen and can be re-established in culture after thawing.

The next assay has as its system bone marrow cells. As to the kind of experiment: Non-adherent cell production in long-term bone marrow culture. Type of assay: cell-based, mice. The following applies: Xs 1 mM, medium with 25% horse serum. The protocol: The non-adherent cell production rate (CPR) is defined as the total number of non-adherent cells produced in a single long-term culture normalized to days of culture (mean=95 days; range=66 to 132) and input cell number (range=5×10^6 to 20×10^6 cells). To develop long-term bone marrow cultures, freshly isolated bone marrow cells from tibia and femurs of 7-12 week-old female C57BL/6J mice were grown in culture medium supplemented with 25% horse serum.

Assay [3] has as its system p53-inducible model cells. The following applies: p53-inducible model cells (Sherley et al. 1995a, Liu et al. 1998a); cited from earlier work.

In the case of `O=c1[nH]c(=O)c2ncn([C@@H]3O[C@H](CO)[C@@H](O)[C@H]3O)c2[nH]1` [Xs, xanthosine], the “Fraction of double-BrdU(+) Xs-D8 daughter pairs” value in the assay with Xs-D8 cells came to 76%. In addition, the “Occurrence of multiple secondary colonies, more common in the presence of Xs” value with LT-CFCs (presence vs absence of Xs) came out at 5 times. Moreover, the “Cases of multiple secondary colonies that occurred in Xs-containing medium” value with LT-CFCs (secondary colonies from type I colonies, 1 mM and 3 mM Xs combined) was “Eighty-three”. Besides, in the assay with LT-CFCs (secondary colonies in Xs-containing soft agar), the “Type I colonies more frequent than type II and III colonies” value came to 50%. Also, in the assay with LT-CFCs (type I colonies grown in Xs), the “Efficiency of giving rise to type I secondary colonies versus control type I colonies” value turned out to be 4 fold. Besides, the “Increase in the frequency of type I colonies” value in assay [1] (1 mM Xs, density of 1×10^5 bone marrow cells per 6-well) is 1.5 fold. In addition, in assay [1] (1 mM Xs, inputs of 5×10^5 or 1×10^6 cells), the “Mean fold increase in the frequency of type I colonies” value is reported as 5.3 fold. The “Mean fold increase in type I colony formation” value in assay [1] (Xs 1 mM and 3 mM, range 1.2 to 6.2, p<0.017) was found to be 2.9 fold. The “Efficiency with which colonies with epithelial cell morphology arose” value in assay [2] (960 Xs+ wells, added Xs 200 μM or 400 μM, same value for 480 Xs− wells) was 4.1±0.31%. In addition, in assay [2] (colonies derived in Xs-containing medium (11/17), Xs-free 50% (3/6)), the “Efficiency of establishing cell strains from initial colonies” value is reported as 65%. Also, the “Increase in the rate of production of non-adherent, differentiated cells” value in the assay on bone marrow cells worked out at 80%. Besides, in assay [3], the “Suppression of asymmetric cell kinetics” value is on record as “can suppress the asymmetric cell kinetics”.
